# In ChEMBL document CHEMBL3885881, “DrugMatrix”:
# Species on record: Rattus norvegicus
# Test: DrugMatrix - Regimen: Daily Repeat
# Type: toxicity, organism-based, Sprague-Dawley
# Design: regimen Daily Repeat, gender Male, age 6-8 weeks
# Details: in vivo, po, route oral GAVAGE, vehicle .5 % CMC; for ABSOLUTE BASOPHIL / ABSOLUTE EOSINOPHIL / ABSOLUTE LYMPHOCYTE / ABSOLUTE MONOCYTE / ABSOLUTE SEGMENTED NEUTROPHIL / BASOPHIL / EOSINOPHIL / ERYTHROCYTE COUNT / HEMATOCRIT / HEMOGLOBIN / LEUKOCYTE COUNT / LYMPHOCYTE / MEAN CORPUSCULAR HEMOGLOBIN / MEAN CORPUSCULAR HEMOGLOBIN CONCENTRATION / MEAN CORPUSCULAR VOLUME / MONOCYTE / NEUTROPHIL / NUCLEATED RED BLOOD CELLS / PLATELET COUNT: tissue Blood; for ALANINE AMINOTRANSFERASE / ALBUMIN / ALKALINE PHOSPHATASE / ASPARTATE AMINOTRANSFERASE / BLOOD UREA NITROGEN / CARBON DIOXIDE / CHLORIDE / CHOLESTEROL / CREATINE PHOSPHOKINASE / CREATININE / GLUCOSE / LACTATE DEHYDROGENASE / LIPASE / PHOSPHORUS / POTASSIUM / SODIUM / TOTAL BILIRUBIN / TOTAL PROTEIN / URIC ACID: tissue Plasma
# [1] = 2500 mg/kg, 120 h, dose level High, time 5 day
# [2] = […], 72 h, dose 5.4 mg/Kg, dose level Low, time 3 day
# [3] = […], 120 h, dose 5.4 mg/Kg, dose level Low, time 5 day
smiles,measurement,setting,value
CN1CCC[C@@H]1CCO[C@](C)(c1ccccc1)c1ccc(Cl)cc1 [CLEMASTINE],ABSOLUTE BASOPHIL,[1],0 CELLS/uL
same,ABSOLUTE EOSINOPHIL,[1],0 CELLS/uL
same,ABSOLUTE LYMPHOCYTE,[1],7767.5 CELLS/uL
same,ABSOLUTE MONOCYTE,[1],575 CELLS/uL
same,ABSOLUTE SEGMENTED NEUTROPHIL,[1],8407.5 CELLS/uL
same,BASOPHIL,[1],0%
same,EOSINOPHIL,[1],0%
same,ERYTHROCYTE COUNT,[1],7.67 x10E6/uL
same,HEMATOCRIT,[1],45.5%
same,HEMOGLOBIN,[1],18 G/DL
same,LEUKOCYTE COUNT,[1],16.75 x10E3/uL
same,LYMPHOCYTE,[1],45.5%
same,MEAN CORPUSCULAR HEMOGLOBIN,[1],23.5 pg
same,MEAN CORPUSCULAR HEMOGLOBIN CONCENTRATION,[1],39.55 G/DL
same,MEAN CORPUSCULAR VOLUME,[1],59.4 fL
same,MONOCYTE,[1],3.5%
same,NEUTROPHIL,[1],51%
same,NUCLEATED RED BLOOD CELLS,[1],0 /100WBC
same,PLATELET COUNT,[1],1417 x10E3/uL
same,ALANINE AMINOTRANSFERASE,[1],189 u/L
same,ALBUMIN,[1],3.45 G/DL
same,ALKALINE PHOSPHATASE,[1],274 u/L
same,ASPARTATE AMINOTRANSFERASE,[1],822.5 u/L
same,BLOOD UREA NITROGEN,[1],37 mg/dL
same,CARBON DIOXIDE,[1],21.5 mmol/L
same,CHLORIDE,[1],84 MEQ/L
same,CHOLESTEROL,[1],24 mg/dL
same,CREATINE PHOSPHOKINASE,[1],1389.5 u/L
same,CREATININE,[1],0.24 mg/dL
same,GLUCOSE,[1],68.5 mg/dL
same,LACTATE DEHYDROGENASE,[1],1904 u/L
same,LIPASE,[1],11 u/L
same,PHOSPHORUS,[1],22.25 mg/dL
same,POTASSIUM,[1],6.91 MEQ/L
same,SODIUM,[1],139.35 MEQ/L
same,TOTAL BILIRUBIN,[1],0.25 mg/dL
same,TOTAL PROTEIN,[1],5.3 G/DL
same,URIC ACID,[1],6.55 mg/dL
same,ABSOLUTE BASOPHIL,[2],0 CELLS/uL
same,ABSOLUTE EOSINOPHIL,[2],41.67 CELLS/uL
same,ABSOLUTE LYMPHOCYTE,[2],12326.67 CELLS/uL
same,ABSOLUTE MONOCYTE,[2],80.67 CELLS/uL
same,ABSOLUTE SEGMENTED NEUTROPHIL,[2],1517.67 CELLS/uL
same,BASOPHIL,[2],0%
same,EOSINOPHIL,[2],0.33%
same,ERYTHROCYTE COUNT,[2],5.26 x10E6/uL
same,HEMATOCRIT,[2],33.9%
same,HEMOGLOBIN,[2],13.3 G/DL
same,LEUKOCYTE COUNT,[2],13.97 x10E3/uL
same,LYMPHOCYTE,[2],88%
same,MEAN CORPUSCULAR HEMOGLOBIN,[2],25.3 pg
same,MEAN CORPUSCULAR HEMOGLOBIN CONCENTRATION,[2],39.23 G/DL
same,MEAN CORPUSCULAR VOLUME,[2],64.53 fL
same,MONOCYTE,[2],0.67%
same,NEUTROPHIL,[2],11%
same,NUCLEATED RED BLOOD CELLS,[2],0 /100WBC
same,PLATELET COUNT,[2],1091.33 x10E3/uL
same,ALANINE AMINOTRANSFERASE,[2],56 u/L
same,ALBUMIN,[2],4.07 G/DL
same,ALKALINE PHOSPHATASE,[2],313.67 u/L
same,ASPARTATE AMINOTRANSFERASE,[2],78.33 u/L
same,BLOOD UREA NITROGEN,[2],16 mg/dL
same,CARBON DIOXIDE,[2],30 mmol/L
same,CHLORIDE,[2],100.33 MEQ/L
same,CHOLESTEROL,[2],87 mg/dL
same,CREATINE PHOSPHOKINASE,[2],239.33 u/L
same,CREATININE,[2],0.19 mg/dL
same,GLUCOSE,[2],158.67 mg/dL
same,LACTATE DEHYDROGENASE,[2],247.33 u/L
same,LIPASE,[2],9.33 u/L
same,PHOSPHORUS,[2],11.17 mg/dL
same,POTASSIUM,[2],5.9 MEQ/L
same,SODIUM,[2],141.47 MEQ/L
same,TOTAL BILIRUBIN,[2],0.2 mg/dL
same,TOTAL PROTEIN,[2],5.63 G/DL
same,URIC ACID,[2],1.23 mg/dL
same,ABSOLUTE BASOPHIL,[3],0 CELLS/uL
same,ABSOLUTE EOSINOPHIL,[3],52.33 CELLS/uL
same,ABSOLUTE LYMPHOCYTE,[3],12918 CELLS/uL
same,ABSOLUTE MONOCYTE,[3],156.33 CELLS/uL
same,ABSOLUTE SEGMENTED NEUTROPHIL,[3],1306.67 CELLS/uL
same,BASOPHIL,[3],0%
same,EOSINOPHIL,[3],0.33%
same,ERYTHROCYTE COUNT,[3],5.68 x10E6/uL
same,HEMATOCRIT,[3],35.67%
same,HEMOGLOBIN,[3],14.13 G/DL
same,LEUKOCYTE COUNT,[3],14.43 x10E3/uL
same,LYMPHOCYTE,[3],89.33%
same,MEAN CORPUSCULAR HEMOGLOBIN,[3],24.93 pg
same,MEAN CORPUSCULAR HEMOGLOBIN CONCENTRATION,[3],39.67 G/DL
same,MEAN CORPUSCULAR VOLUME,[3],62.87 fL
same,MONOCYTE,[3],1.33%
same,NEUTROPHIL,[3],9%
same,NUCLEATED RED BLOOD CELLS,[3],0.33 /100WBC
same,PLATELET COUNT,[3],866 x10E3/uL
same,ALANINE AMINOTRANSFERASE,[3],51 u/L
same,ALBUMIN,[3],4.57 G/DL
same,ALKALINE PHOSPHATASE,[3],318.67 u/L
same,ASPARTATE AMINOTRANSFERASE,[3],79.67 u/L
same,BLOOD UREA NITROGEN,[3],14 mg/dL
same,CARBON DIOXIDE,[3],30.33 mmol/L
same,CHLORIDE,[3],101.33 MEQ/L
same,CHOLESTEROL,[3],68.33 mg/dL
same,CREATINE PHOSPHOKINASE,[3],200.33 u/L
same,CREATININE,[3],0.16 mg/dL
same,GLUCOSE,[3],155.33 mg/dL
same,LACTATE DEHYDROGENASE,[3],118.67 u/L
same,LIPASE,[3],10 u/L
same,PHOSPHORUS,[3],10.77 mg/dL
same,POTASSIUM,[3],6.13 MEQ/L
same,SODIUM,[3],141.6 MEQ/L
same,TOTAL BILIRUBIN,[3],0.2 mg/dL
same,TOTAL PROTEIN,[3],6.3 G/DL
same,URIC ACID,[3],1.47 mg/dL
